According to PubChem BioAssay AID1918938 (Molecular Pharmacology Branch, DTP, NCI, 2023):
pIC50: −log10 of the molar value.

System: 556581-035-R-J1-PDC complex spheroid viability
Assay: Anticancer human tumor 556581-035-R-J1-PDC patient-derived ovarian carcinoma cell line growth inhibition
Conditions: for pIC50: curve of first compound; for viability, T/C: stronger effect = lower value
Text: Multicellular complex tumor spheroid response to LSD1 Inhibitor Iadademstat in combination with a variety of drugs and investigational agents in selected tumor cell lines
The current study was undertaken to assess response to LSD1 inhibitors in combination with standard-of-care drugs and investigational agents in solid tumor complex spheroid models as well as in the K-562 leukemia. Complex spheroids include a stromal component modeled by human endothelial cells (HUVEC) and fibroblasts modeled by human mesenchymal stem cells (MSCs). The concentration ranges selected for each drug and investigational agent were based upon clinically achievable concentrations if the clinical Cmax of the agent was known.
Compounds. The drugs and investigational agents used in this study are listed on Table 1. All of the agents used, including staurosporine (NSC755774) and gemcitabine (NSC613327), were obtained from the Developmental Therapeutics Program, NCI. FDA-approved anticancer drugs are available from the NCI at http://dtp.nci.nih.gov/branches/dscb/oncology_drugset_explanation.html. Drugs and investigational agents were >95% pure by proton nuclear magnetic resonance (NMR) and liquid chromatography/mass spectrometry (LC/MS). Stock solutions were prepared at 400x in DMSO, stored at -70 degrees C, and diluted in fresh medium prior to their use. The final concentration of DMSO in cell culture wells never exceeded 0.25% (v/v). The FDA-approved anticancer drug set is available from the Developmental Therapeutics Program at https://dtp.cancer.gov/organization/dscb/obtaining/available_plates.htm. All drugs and investigational agents were tested over a range starting from a high concentration at or near the clinical Cmax and decreasing in half-log increments. If the clinical Cmax for an agent had not been determined, the highest concentration tested was 10 microM.
Cell Lines. The patient-derived cancer cell (PDC) lines: 292921-168-R-J2-PDC, K24384-001-R-PDC, and 521955-158-R2-J5-PDC pancreatic carcinomas, 556581-035-R-J1 ovarian carcinoma, 324938-238-R-J1-PDC, 855422-203-R-J1-PDC and 883617-216-R-J1-PDC urothelial bladder carcinomas, 743489-274-T-PDC renal cell carcinoma, 138582-R-J1 Merkel cell tumor, K60290-347-R-J1 and K57222-313-R-J1-PDC glioblastomas, 653999-131-R-J2-PDC, LG0703-F948-PDC, and 349418-098-R-PDC non-small cell lung carcinomas, 885512-296-R-J2-PDC, 171881-019-R-J1-PDC breast carcinomas and 186277-243-T-J2-PDC and 233499-124-R-J2-PDC colon carcinomas were obtained from the NCI Patient-Derived Models Repository (PDMR, https://pdmr.cancer.gov). The established cell lines NCI/ADR-RES (RRID:CVCL_14520 and OVCAR-5 (RRID:CVCL_1628) ovarian carcinomas, 786-O (RRID:CVCL_1051) and A498 (RRID:CVCL_A498) renal cell carcinoma, NCI-H211 (ATCC, cat. CRL-5824; RRID:CVCL_1529), NCI-H196 (ATCC, cat. CRL-5823, RRID:CVCL_1509), SW 1271 (ATCC, cat. CRL-2177, RRID:CVCL_1716) and NCI-H1876 (ATCC, cat. CRL-5902, RRID:CVCL_1503) small cell lung carcinomas, MDA-MB-231 (RRID:CVCL_0062) and MDA-MB-468 (RRID:CVCL_0419)breast carcinomas (10-12). Pooled donor human umbilical vein endothelial cells (HUVEC, Lonza, cat. CC-2519) and human mesenchymal stem cells (hMSC, Lonza, cat. PT-2501) were purchased from Lonza (Walkersville, MD).
Cell Culture. All cells were maintained in an incubator at 37 degrees C and 5% CO2 with 95% humidity. The PDC lines were cultured according to standard operating procedures established by the NCI PDMR (https://pdmr.cancer.gov). Briefly all PDCs were thawed and cultured in Matrigel-coated flasks prepared with a working solution of 1X Ham's F-12 nutrient mix, without supplementation (Invitrogen, Waltham, MA, cat. 11765054), 100 U/mL penicillin-streptomycin (Invitrogen, cat. 15140122), and 2.5% Matrigel (Corning Inc., Corning, NY, cat. 354248) for the first three passages. […]

[1] = second compound 0.1 µM, first compound 0.00316 µM
[2] = second compound 0.1 µM, first compound 0.01 µM
[3] = second compound 0.1 µM, first compound 0.0316 µM
[4] = second compound 0.1 µM, first compound 0.1 µM
[5] = second compound 0.316 µM, first compound 0.00316 µM
[6] = second compound 0.316 µM, first compound 0.01 µM
[7] = second compound 0.316 µM, first compound 0.0316 µM
[8] = second compound 0.316 µM, first compound 0.1 µM
[9] = second compound 1 µM, first compound 0.00316 µM
[10] = second compound 1 µM, first compound 0.01 µM
[11] = second compound 1 µM, first compound 0.0316 µM
[12] = second compound 1 µM, first compound 0.1 µM
[13] = second compound 3.16 µM, first compound 0.00316 µM
[14] = second compound 3.16 µM, first compound 0.01 µM
[15] = second compound 3.16 µM, first compound 0.0316 µM
[16] = second compound 3.16 µM, first compound 0.1 µM
[17] = second compound 10 µM, first compound 0.00316 µM
[18] = second compound 10 µM, first compound 0.01 µM
[19] = second compound 10 µM, first compound 0.0316 µM
[20] = second compound 10 µM, first compound 0.1 µM
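Further: spheroids exposed to agents for seven days.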
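Wherever viability, T/C is given: 100% = DMSO vehicle control wells.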

`CC[C@@]1(O)C(=O)OCc2c1cc1n(c2=O)Cc2cc3c(CN(C)C)c(O)ccc3nc2-1` + NC1CC1c1ccc(-c2cccc(O)c2)cc1 gave a pIC50 (second compound 0.1 µM) of 8.23, a pIC50 (second compound 0.316 µM) of 8.23 and a pIC50 (second compound 1 µM) of 8.25. The pIC50 (second compound 3.16 µM) was 8.21, the pIC50 (second compound 10 µM) was 8.29 and the viability, T/C (second compound 0.1 µM, first compound 0.000316 µM) was 97.9%. For the same compound, the viability, T/C (second compound 0.1 µM, first compound 0.001 µM) was 88.2%, the viability, T/C [1] was 67% and the viability, T/C [2] was 34.9%. For the same compound, the viability, T/C [3] was 16.6%, the viability, T/C [4] was 7.12% and the viability, T/C (second compound 0.316 µM, first compound 0.000316 µM) was 95.5%. The viability, T/C (second compound 0.316 µM, first compound 0.001 µM) was 104%, the viability, T/C [5] was 64.8% and the viability, T/C [6] was 34.5%. For the same compound, the viability, T/C [7] was 16.6%, the viability, T/C [8] was 6.13% and the viability, T/C (second compound 1 µM, first compound 0.000316 µM) was 91.2%. It also gave a viability, T/C (second compound 1 µM, first compound 0.001 µM) of 95.1%, a viability, T/C [9] of 68.4% and a viability, T/C [10] of 30.3%. The viability, T/C [11] was 13.3%, the viability, T/C [12] was 6.38% and the viability, T/C (second compound 3.16 µM, first compound 0.000316 µM) was 103%. For the same compound, the viability, T/C (second compound 3.16 µM, first compound 0.001 µM) was 96.1%, the viability, T/C [13] was 69.9% and the viability, T/C [14] was 34.7%. The viability, T/C [15] was 14.4%, the viability, T/C [16] was 6.43% and the viability, T/C (second compound 10 µM, first compound 0.000316 µM) was 87.9%. It also gave a viability, T/C (second compound 10 µM, first compound 0.001 µM) of 79.8%, a viability, T/C [17] of 59% and a viability, T/C [18] of 35.6%. It also gave a viability, T/C [19] of 20.7% and a viability, T/C [20] of 5.8%.
`COc1cc(C2c3cc4c(cc3C(OC3OC5COC(C)OC5C(O)C3O)C3COC(=O)C23)OCO4)cc(OC)c1O` (stereo not given) + NC1CC1c1ccc(-c2cccc(O)c2)cc1 gave a pIC50 (second compound 0.1 µM) of 6.79, a pIC50 (second compound 0.316 µM) of 6.94 and a pIC50 (second compound 1 µM) of 6.73. It also gave a pIC50 (second compound 3.16 µM) of 6.50, a pIC50 (second compound 10 µM) of 6.49 and a viability, T/C (second compound 0.1 µM, first compound 0.00949 µM) of 92.1%. For the same compound, the viability, T/C (second compound 0.1 µM, first compound 0.03 µM) was 76%, the viability, T/C (second compound 0.1 µM, first compound 0.0949 µM) was 56.4% and the viability, T/C (second compound 0.1 µM, first compound 0.3 µM) was 42.7%. For the same compound, the viability, T/C (second compound 0.1 µM, first compound 0.949 µM) was 30.3%, the viability, T/C (second compound 0.1 µM, first compound 3 µM) was 23.8% and the viability, T/C (second compound 0.316 µM, first compound 0.00949 µM) was 87.8%. It also gave a viability, T/C (second compound 0.316 µM, first compound 0.03 µM) of 75.6%, a viability, T/C (second compound 0.316 µM, first compound 0.0949 µM) of 52.9% and a viability, T/C (second compound 0.316 µM, first compound 0.3 µM) of 33.9%. For the same compound, the viability, T/C (second compound 0.316 µM, first compound 0.949 µM) was 31%, the viability, T/C (second compound 0.316 µM, first compound 3 µM) was 22.6% and the viability, T/C (second compound 1 µM, first compound 0.00949 µM) was 90.4%. For the same compound, the viability, T/C (second compound 1 µM, first compound 0.03 µM) was 79.6%, the viability, T/C (second compound 1 µM, first compound 0.0949 µM) was 53.6% and the viability, T/C (second compound 1 µM, first compound 0.3 µM) was 46.3%. It also gave a viability, T/C (second compound 1 µM, first compound 0.949 µM) of 29.9%, a viability, T/C (second compound 1 µM, first compound 3 µM) of 18.3% and a viability, T/C (second compound 3.16 µM, first compound 0.00949 µM) of 89.5%. The viability, T/C (second compound 3.16 µM, first compound 0.03 µM) was 72%, the viability, T/C (second compound 3.16 µM, first compound 0.0949 µM) was 63.6% and the viability, T/C (second compound 3.16 µM, first compound 0.3 µM) was 40.5%. The viability, T/C (second compound 3.16 µM, first compound 0.949 µM) was 54.4%, the viability, T/C (second compound 3.16 µM, first compound 3 µM) was 18.4% and the viability, T/C (second compound 10 µM, first compound 0.00949 µM) was 83.6%. It also gave a viability, T/C (second compound 10 µM, first compound 0.03 µM) of 77.8%, a viability, T/C (second compound 10 µM, first compound 0.0949 µM) of 59.9% and a viability, T/C (second compound 10 µM, first compound 0.3 µM) of 51.6%. For the same compound, the viability, T/C (second compound 10 µM, first compound 0.949 µM) was 39.5% and the viability, T/C (second compound 10 µM, first compound 3 µM) was 27.8%.
`Nc1ncn(C2CC(O)C(CO)O2)c(=O)n1` (stereo not given) + NC1CC1c1ccc(-c2cccc(O)c2)cc1 was tested, and the pIC50 (second compound 0.1 µM) was less than 6.00, the pIC50 (second compound 0.316 µM) was less than 6.00 and the pIC50 (second compound 1 µM) was less than 6.00. For the same compound, the pIC50 (second compound 3.16 µM) was less than 6.00, the pIC50 (second compound 10 µM) was less than 6.00 and the viability, T/C [1] was 78.6%. For the same compound, the viability, T/C [2] was 103%, the viability, T/C [3] was 76.2% and the viability, T/C [4] was 75.2%. It also gave a viability, T/C (second compound 0.1 µM, first compound 0.316 µM) of 72.4%, a viability, T/C (second compound 0.1 µM, first compound 1 µM) of 77.8% and a viability, T/C [5] of 103%. The viability, T/C [6] was 101%, the viability, T/C [7] was 77.5% and the viability, T/C [8] was 69.5%. The viability, T/C (second compound 0.316 µM, first compound 0.316 µM) was 62.8%, the viability, T/C (second compound 0.316 µM, first compound 1 µM) was 73.5% and the viability, T/C [9] was 94.4%. For the same compound, the viability, T/C [10] was 85.3%, the viability, T/C [11] was 97.4% and the viability, T/C [12] was 75.2%. For the same compound, the viability, T/C (second compound 1 µM, first compound 0.316 µM) was 55.2%, the viability, T/C (second compound 1 µM, first compound 1 µM) was 72.4% and the viability, T/C [13] was 108%. The viability, T/C [14] was 102%, the viability, T/C [15] was 89.4% and the viability, T/C [16] was 54.9%. For the same compound, the viability, T/C (second compound 3.16 µM, first compound 0.316 µM) was 62.3%, the viability, T/C (second compound 3.16 µM, first compound 1 µM) was 69.1% and the viability, T/C [17] was 98.8%. The viability, T/C [18] was 116%, the viability, T/C [19] was 90.7% and the viability, T/C [20] was 77.4%. For the same compound, the viability, T/C (second compound 10 µM, first compound 0.316 µM) was 86% and the viability, T/C (second compound 10 µM, first compound 1 µM) was 66.9%.
